Results from patent US11891387B2, “Monoacylglycerol lipase modulators” (Janssen Pharmaceutica NV, priority 2020, dated 2024).

Target: human MGL from HeLa cells (Homo sapiens (Human), UniProt Q99685)
Experiment: MGL in vitro activity assay: cleavage of [glycerol-1,3-3H]-oleyl glycerol, activated carbon filtration
Assay type: biochemical
Conditions: 300 nM [Glycerol-1,3-3H]-oleyl glycerol, endogenously expressed MGL from HeLa cells, one hour incubation
Procedure: The assay used to measure the in vitro activity of MGL is adapted from the assay used for another serine hydrolase (FAAH) described in Wilson et al., 2003 (A high-throughput-compatible assay for determining the activity of fatty acid amide hydrolase. Wilson S J, Lovenberg T W, Barbier A J. Anal Biochem. 2003 Jul. 15; 318(2):270-5.). The assay consists of combining endogenously expressed MGL from HeLa cells with test compounds, adding [glycerol-1,3-^3H]-oleyl glycerol, incubating for one hour, and then measuring the amount of cleaved [1,3-^3H]-glycerol that passes through an activated carbon filter. The amount of cleaved, tritiated glycerol passing through the carbon filter is proportional to the activity of the MGL enzyme in a particular well/test condition.
Standard conditions for this assay combine 300 nM [Glycerol-1,3-^3H]-oleyl glycerol with human MGL from HeLa cells and test compounds for one hour, after which the reaction is filtered through activated carbon and tritium is measured in the flow through. The test compound concentration in screening mode is 10 μM, while the highest compound concentration in IC50 assays is determined empirically. MGL is the predominant hydrolase in HeLa cells/cell homogenates.

Sequence of human MGL from HeLa cells (Q99685 whole entry): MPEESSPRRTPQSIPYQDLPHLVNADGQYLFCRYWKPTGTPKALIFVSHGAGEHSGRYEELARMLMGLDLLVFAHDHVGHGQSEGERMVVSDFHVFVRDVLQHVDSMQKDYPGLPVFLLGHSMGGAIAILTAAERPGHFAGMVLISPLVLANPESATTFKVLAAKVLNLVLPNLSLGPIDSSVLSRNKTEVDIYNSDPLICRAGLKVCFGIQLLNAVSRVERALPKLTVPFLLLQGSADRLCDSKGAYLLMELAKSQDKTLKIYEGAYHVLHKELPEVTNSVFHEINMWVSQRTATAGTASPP

| Structure (SMILES) | IC50 [nM] |
| --- | --- |
| Cc1ccc(C(=O)N2CCc3c(nn(C)c3-c3cc(C(F)(F)F)nn3C)[C@@H]2C)cc1C [Example 43, (S)-(2,7-Dimethyl-3-(1-methyl-3-(trifluoromethyl)-1H-pyrazol-5-yl)-2,4,5,7-tetrahydro-6H-pyrazolo[3,4-c]pyridin-6-yl)(3,4-dimethylphenyl)methanone] | 33 |
| C[C@H]1c2nn(C)c(-c3cc(C(F)(F)F)n(C)n3)c2CCN1C(=O)c1ccnc2c1cnn2C [Example 118, (S)-(2,7-Dimethyl-3-(1-methyl-5-(trifluoromethyl)-1H-pyrazol-3-yl)-2,4,5,7-tetrahydro-6H-pyrazolo[3,4-c]pyridin-6-yl)(1-methyl-1H-pyrazolo[3,4-b]pyridin-4-yl)methanone] | 47 |
| Cc1nc2ccc(C(=O)N3CCc4c(nn(C)c4-c4cc(C(F)(F)F)nn4C)[C@@H]3C)cc2s1 [Example 58, (S)-(2,7-Dimethyl-3-(1-methyl-3-(trifluoromethyl)-1H-pyrazol-5-yl)-2,4,5,7-tetrahydro-6H-pyrazolo[3,4-c]pyridin-6-yl)(2-methylbenzo[d]thiazol-6-yl)methanone] | 55 |
| C[C@H]1c2nn(C)c(-c3cc(C(F)(F)F)nn3C)c2CCN1C(=O)c1cccc2nn(C)cc12 [Example 23, (S)-(2,7-Dimethyl-3-(1-methyl-3-(trifluoromethyl)-1H-pyrazol-5-yl)-2,4,5,7-tetrahydro-6H-pyrazolo[3,4-c]pyridin-6-yl)(2-methyl-2H-indazol-4-yl)methanone] | 84 |
| CCn1ccc(-c2c3c(nn2C)[C@H](C)N(C(=O)c2ccc4ncccc4c2)CC3)n1 [Example 66, (S)-(3-(1-Ethyl-1H-pyrazol-3-yl)-2,7-dimethyl-2,4,5,7-tetrahydro-6H-pyrazolo[3,4-c]pyridin-6-yl)(quinolin-6-yl)methanone] | 4000 |
| C[C@H]1c2nn(C)c(-c3ccn(C(F)F)n3)c2CCN1C(=O)c1ccc2ncccc2c1 [Example 67, (S)-(3-(1-(Difluoromethyl)-1H-pyrazol-3-yl)-2,7-dimethyl-2,4,5,7-tetrahydro-6H-pyrazolo[3,4-c]pyridin-6-yl)(quinolin-6-yl)methanone] | 1340 |
| COc1cc(C(=O)N2CCc3c(nn(C)c3-c3cc(C(F)(F)F)n(C)n3)[C@@H]2C)c2ccccc2n1 [Example 20, (S)-(2,7-Dimethyl-3-(1-methyl-5-(trifluoromethyl)-1H-pyrazol-3-yl)-2,4,5,7-tetrahydro-6H-pyrazolo[3,4-c]pyridin-6-yl)(2-methoxyquinolin-4-yl)methanone] | 8.2 |
| COc1ccc(C(=O)N2CCc3c(nn(C)c3-c3cc(C(F)(F)F)nn3C)[C@@H]2C)c(C)c1 [Example 40, (S)-(2,7-Dimethyl-3-(1-methyl-3-(trifluoromethyl)-1H-pyrazol-5-yl)-2,4,5,7-tetrahydro-6H-pyrazolo[3,4-c]pyridin-6-yl)(4-methoxy-2-methylphenyl)methanone] | 230 |
| Cc1ccc2nc(C)cc(C(=O)N3CCc4c(nn(C)c4-c4cc(C(F)(F)F)nn4C)[C@@H]3C)c2c1 [Example 25, (S)-(2,7-Dimethyl-3-(1-methyl-3-(trifluoromethyl)-1H-pyrazol-5-yl)-2,4,5,7-tetrahydro-6H-pyrazolo[3,4-c]pyridin-6-yl)(2,6-dimethylquinolin-4-yl)methanone] | 90 |
| C[C@H]1c2nn(C)c(-c3cc(C(F)(F)F)nn3C)c2CCN1C(=O)c1cccc(OC(F)(F)F)c1F [Example 112, (S)-(2,7-Dimethyl-3-(1-methyl-3-(trifluoromethyl)-1H-pyrazol-5-yl)-2,4,5,7-tetrahydro-6H-pyrazolo[3,4-c]pyridin-6-yl)(2-fluoro-3-(trifluoromethoxy)phenyl)methanone] | 86 |
| Cn1nc(C(F)(F)F)cc1-c1c2c(nn1C)[C@@H]1CCC[C@H](C2)N1C(=O)c1ccc2c(c1)OCCC2 (stereo in doubt) [Example 75, Chroman-7-yl((5R,9S)-2-methyl-3-(1-methyl-3-(trifluoromethyl)-1H-pyrazol-5-yl)-4,5,6,7,8,9-hexahydro-2H-5,9-epiminocycloocta[c]pyrazol-10-yl)methanone] | 44 |
| COc1cc(C)nc2ccc(C(=O)N3CCc4c(nn(C)c4-c4cc(C(F)(F)F)nn4C)[C@@H]3C)cc12 [Example 95, (S)-(2,7-Dimethyl-3-(1-methyl-3-(trifluoromethyl)-1H-pyrazol-5-yl)-2,4,5,7-tetrahydro-6H-pyrazolo[3,4-c]pyridin-6-yl)(4-methoxy-2-methylquinolin-6-yl)methanone] | 10000 |
| C[C@H]1c2nn(C)c(-c3cnn(C)c3C(F)(F)F)c2CCN1C(=O)c1ccc2ncsc2c1 [Example 59, (S)-Benzo[d]thiazol-6-yl(2,7-dimethyl-3-(1-methyl-5-(trifluoromethyl)-1H-pyrazol-4-yl)-2,4,5,7-tetrahydro-6H-pyrazolo[3,4-c]pyridin-6-yl)methanone] | 2960 |
| C[C@H]1c2nn(C)c(-c3cnn(C(F)F)c3)c2CCN1C(=O)c1ccc2ncccc2c1 [Example 69, (S)-(3-(1-(Difluoromethyl)-1H-pyrazol-4-yl)-2,7-dimethyl-2,4,5,7-tetrahydro-6H-pyrazolo[3,4-c]pyridin-6-yl)(quinolin-6-yl)methanone] | 89 |
| Cc1cc2ncsc2cc1C(=O)N1CCc2c(nn(C)c2-c2cc(C(F)(F)F)nn2C)[C@@H]1C [Example 134, (S)-(2,7-Dimethyl-3-(1-methyl-3-(trifluoromethyl)-1H-pyrazol-5-yl)-2,4,5,7-tetrahydro-6H-pyrazolo[3,4-c]pyridin-6-yl)(5-methylbenzo[d]thiazol-6-yl)methanone] | 87 |
| C[C@H]1c2nn(C)c(-c3cc(C(F)(F)F)nn3C)c2CCN1C(=O)c1cc(F)ccc1-n1cccn1 [Example 37, (S)-(2,7-Dimethyl-3-(1-methyl-3-(trifluoromethyl)-1H-pyrazol-5-yl)-2,4,5,7-tetrahydro-6H-pyrazolo[3,4-c]pyridin-6-yl)(5-fluoro-2-(1H-pyrazol-1-yl)phenyl)methanone] | 380 |
| Cn1nc(C(F)(F)F)cc1-c1c2c(nn1C)[C@@H]1CCC[C@H](C2)N1C(=O)c1cnc2cccc(F)c2c1 [Example 83, (5-Fluoroquinolin-3-yl)((5R,9S)-2-methyl-3-(1-methyl-3-(trifluoromethyl)-1H-pyrazol-5-yl)-4,5,6,7,8,9-hexahydro-2H-5,9-epiminocycloocta[c]pyrazol-10-yl)methanone] | 40 |
| COc1cccc(C(=O)N2CCc3c(nn(C)c3-c3cc(C(F)(F)F)nn3C)[C@@H]2C)c1Cl [Example 35, (S)-(2-Chloro-3-methoxyphenyl)(2,7-dimethyl-3-(1-methyl-3-(trifluoromethyl)-1H-pyrazol-5-yl)-2,4,5,7-tetrahydro-6H-pyrazolo[3,4-c]pyridin-6-yl)methanone] | 25 |
| Cc1cc(C(=O)N2CCc3c(nn(C)c3-c3cc(C(F)(F)F)nn3C)[C@@H]2C)cc2scnc12 [Example 135, (S)-(2,7-Dimethyl-3-(1-methyl-3-(trifluoromethyl)-1H-pyrazol-5-yl)-2,4,5,7-tetrahydro-6H-pyrazolo[3,4-c]pyridin-6-yl)(4-methylbenzo[d]thiazol-6-yl)methanone] | 22 |
| C[C@H]1c2nn(C)c(-c3cnn(C)c3C(F)(F)F)c2CCN1C(=O)c1n[nH]c2cc(F)cc(F)c12 [Example 28, (S)-(4,6-Difluoro-1H-indazol-3-yl)(2,7-dimethyl-3-(1-methyl-5-(trifluoromethyl)-1H-pyrazol-4-yl)-2,4,5,7-tetrahydro-6H-pyrazolo[3,4-c]pyridin-6-yl)methanone] | 2120 |
| COc1cc(C)cc(C(=O)N2[C@@H]3CCC[C@H]2c2nn(C)c(-c4cc(C(F)(F)F)nn4C)c2C3)c1 (stereo in doubt) [Example 77, (3-Methoxy-5-methylphenyl)((5R,9S)-2-methyl-3-(1-methyl-3-(trifluoromethyl)-1H-pyrazol-5-yl)-4,5,6,7,8,9-hexahydro-2H-5,9-epiminocycloocta[c]pyrazol-10-yl)methanone] | 26 |
| C[C@H]1c2nn(C)c(-c3cnn(C)c3C(F)(F)F)c2CCN1C(=O)c1nn(C)c2cc(F)cc(F)c12 [Example 27, (S)-(4,6-Difluoro-1-methyl-1H-indazol-3-yl)(2,7-dimethyl-3-(1-methyl-5-(trifluoromethyl)-1H-pyrazol-4-yl)-2,4,5,7-tetrahydro-6H-pyrazolo[3,4-c]pyridin-6-yl)methanone] | 1170 |
| C[C@H]1c2nn(C)c(-c3cc(C(F)(F)F)nn3C)c2CCN1C(=O)c1cccc2ncsc12 [Example 57, (S)-Benzo[d]thiazol-7-yl(2,7-dimethyl-3-(1-methyl-3-(trifluoromethyl)-1H-pyrazol-5-yl)-2,4,5,7-tetrahydro-6H-pyrazolo[3,4-c]pyridin-6-yl)methanone] | 22 |
| C[C@H]1c2nn(C)c(-c3cc(C(F)(F)F)nn3C)c2CCN1C(=O)c1cnn2cccc(F)c12 [Example 11, (S)-(2,7-Dimethyl-3-(1-methyl-3-(trifluoromethyl)-1H-pyrazol-5-yl)-2,4,5,7-tetrahydro-6H-pyrazolo[3,4-c]pyridin-6-yl)(4-fluoropyrazolo[1,5-a]pyridin-3-yl)methanone] | 6.2 |
| C[C@H]1c2nn(C)c(-c3cnn(C)c3C(F)(F)F)c2CCN1C(=O)c1ccnc2c1cnn2C [Example 32, (S)-(2,7-Dimethyl-3-(1-methyl-5-(trifluoromethyl)-1H-pyrazol-4-yl)-2,4,5,7-tetrahydro-6H-pyrazolo[3,4-c]pyridin-6-yl)(1-methyl-1H-pyrazolo[3,4-b]pyridin-4-yl)methanone] | 4560 |
